The nature of this data set: Solubility of solid state forms of Encequidar mesylate. It is filed as physicochemical. Conditions: compared with amorphous Encequidar mesylate; no medium or method printed.

Counter-ions that a name gives are not always drawn.

`COc1cc2c(cc1OC)CN(CCc1ccc(-n3nnc(-c4cc(OC)c(OC)cc4NC(=O)c4cc(=O)c5ccccc5o4)n3)cc1)CC2` [Form B of Encequidar mesylate]: the solubility result was “surprisingly greater than the solubility of amorphous Encequidar mesylate”.
